Reference: patent US12612380B2, “Non-lysosomal glucosylceramidase inhibitors and uses thereof” (ALECTOS THERAPEUTICS INC., priority 2019, dated 2026)

target: T1, GBA2 (Homo sapiens, UniProt Q9HCG7); test: Determination of IC50 values for inhibition of GBA2 in cell lysate; assay type: biochemical; set-up: host or cells: HEK293T (lentiviral transduction, puromycin selection); used as cellular homogenate; conditions: not given
T1 sequence (Q9HCG7 1-927): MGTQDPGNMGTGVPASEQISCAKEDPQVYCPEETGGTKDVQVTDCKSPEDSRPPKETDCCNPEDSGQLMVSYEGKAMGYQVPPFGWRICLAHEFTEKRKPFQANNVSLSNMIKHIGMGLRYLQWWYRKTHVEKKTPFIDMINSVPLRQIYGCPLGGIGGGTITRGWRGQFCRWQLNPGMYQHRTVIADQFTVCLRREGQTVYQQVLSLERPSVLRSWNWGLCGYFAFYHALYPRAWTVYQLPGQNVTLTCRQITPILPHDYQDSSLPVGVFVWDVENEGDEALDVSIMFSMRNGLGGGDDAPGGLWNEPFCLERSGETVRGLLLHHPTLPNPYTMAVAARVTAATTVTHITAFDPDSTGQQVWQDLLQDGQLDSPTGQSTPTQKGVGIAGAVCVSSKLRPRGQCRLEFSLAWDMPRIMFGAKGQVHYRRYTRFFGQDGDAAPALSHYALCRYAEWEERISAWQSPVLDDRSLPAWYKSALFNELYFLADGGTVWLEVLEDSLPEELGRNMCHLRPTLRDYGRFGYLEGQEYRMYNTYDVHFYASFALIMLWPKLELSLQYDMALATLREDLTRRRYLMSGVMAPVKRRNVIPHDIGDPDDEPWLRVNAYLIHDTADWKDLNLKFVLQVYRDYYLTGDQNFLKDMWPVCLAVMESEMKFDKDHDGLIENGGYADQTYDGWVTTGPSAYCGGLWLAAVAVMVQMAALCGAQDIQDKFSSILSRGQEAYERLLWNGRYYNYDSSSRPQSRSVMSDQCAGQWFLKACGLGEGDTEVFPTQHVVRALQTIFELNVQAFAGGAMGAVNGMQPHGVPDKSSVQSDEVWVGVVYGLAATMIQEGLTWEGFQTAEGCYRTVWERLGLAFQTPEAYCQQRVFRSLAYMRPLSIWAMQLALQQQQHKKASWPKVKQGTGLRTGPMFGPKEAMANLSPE
Source text: Assay for Determination of IC50 Values for Inhibition of GBA2 in Cell Lysate
Stable GBA2-expressing HEK293T cells were generated as follows. The PCR-amplified human GBA2 (GBA2 nucleotide accession number BC011363) using the following primers: Sense 5′---CGCAAATGGGCGGTAGGCGTG (SEQ ID NO:2)---3′ and antisense 5′---TAGTCAGCCATGGGGCGGAGA (SEQ ID NO:3)---3′) was cloned into pLenti-GIII-CMV by ABM Inc. The correctness of the construct was verified by sequencing. Lentivirus particles containing GBA2 in the pLenti-GIII-CMV plasmid were prepared using a third Generation Virus Packaging Mix (ABM cat #LV053-G074) in HEK293T cells and supplied as a virus particle suspension. The virus suspension was used for infection of HEK293T cells. Cell populations stably expressing human GBA2 were selected using puromycin for several weeks as determined by activity assays and western blot.
Various concentrations of test compounds were prepared in DMSO and then diluted into buffer consisting of 100 mM citric acid, 200 mM disodium phosphate with 1% v/v C10E6, pH 5.5. Cellular homogenates (0.25 mg/mL) of the stable HEK293T-overexpressing GBA2 cell line were preincubated for 10 min on ice with an inhibitor of GCase (20 μM (6R,7R,8S)-8-ethyl-4-azaspiro[2.5]octane-6,7-diol). The reaction solution consisted of 20 μL of 750 μM 4-methylumbelliferone-β-D glucopyranoside in 5% DMSO in the same buffer, 20 μL of GBA2-cellular homogenate pre-treated with (6R,7R,8S)-8-ethyl-4-azaspiro[2.5]octane-6,7-diol and 20 μL of various concentrations of test compound in 10% DMSO in the same buffer. The final concentrations in the reaction were 0.083 mg/mL GBA2-cellular homogenate, 250 μM 4-methylumbelliferone-β-D glucopyranoside, and various concentrations of inhibitor. The inhibitor and GBA2-cellular homogenate were preincubated together for 5 min at 37° C. The reaction was initiated by addition of substrate and allowed to proceed for 20 min at 37° C. to assess GBA2 activity. Reactions were stopped by the addition of an equal volume (60 μL) of 0.5 M NaOH, 0.3 M glycine, pH 10.5. Fluorescence was measured on a Biotek Synergy H4 plate reader at wavelengths of 365 nm for excitation and 450 nm for emission. Incubations without added enzyme or added inhibitors were used to define no enzyme activity and maximal enzyme activity, respectively. IC50 values were determined by fitting the data to a log[inhibitor concentration] versus response curve using GraphPad Prism. IC50 values were calculated as the concentration of inhibitor required to inhibit GBA2 activity by 50%.

| Compound | IC50 |
| --- | --- |
| C[C@@H]1[C@@H](O)[C@H](O)[C@@H](O)CN1CCc1ccc(F)cc1F [Example 41, (2R,3R,4R,5S)-1-(2,4-difluorophenethyl)-2-methylpiperidine-3,4,5-triol] | 100 to 1000 nM |
| O[C@H]1[C@H](O)[C@H](CF)N(CCc2ccccc2F)C[C@@H]1O [Example 159, (2R,3R,4R,5S)-2-(fluoromethyl)-1-(2-fluorophenethyl)piperidine-3,4,5-triol] | 1000 to 25000 nM |
| C=C(C)c1cc(F)c(CCN2C[C@H](O)[C@@H](O)[C@H](O)[C@H]2C)c(F)c1 [Example 50, (2R,3R,4R,5S)-1-(2,6-difluoro-4-(prop-1-en-2-yl)phenethyl)-2-methylpiperidine-3,4,5-triol] | < 100 nM |
| C[C@@H]1[C@@H](O)[C@H](O)[C@@H](O)CN1CCc1ccccc1 [Example 35, (2R,3R,4R,5S)-2-methyl-1-phenethylpiperidine-3,4,5-triol] | 100 to 1000 nM |
| CCCCOc1cc(F)c(CCN2C[C@H](O)[C@@H](O)[C@H](O)[C@@H]2C)c(F)c1 [Example 158, (2S,3R,4R,5S)-1-(4-butoxy-2,6-difluorophenethyl)-2-methylpiperidine-3,4,5-triol] | 100 to 1000 nM |
| COc1ccccc1CCN1C[C@H](O)[C@@H](O)[C@H](O)[C@H]1C [Example 37, (2R,3R,4R,5S)-1-(2-methoxyphenethyl)-2-methylpiperidine-3,4,5-triol] | 100 to 1000 nM |

same assay, conditions: cellular homogenate of HEK293T cells overexpressing human GBA2, 250 μM 4-methylumbelliferone-β-D glucopyranoside, pH 5.5, 37° C., GCase inhibitor present; read-out: GBA2 IC50

| Compound | IC50 |
| --- | --- |
| COC1CCC(C(=O)N2CCC(CN3C[C@H](O)[C@@H](O)[C@H](O)[C@H]3C)CC2)CC1 (stereo partly drawn) [Example 104, (4-methoxycyclohexyl)(4-(((2R,3R,4R,5S)-3,4,5-trihydroxy-2-methylpiperidin-1-yl)methyl)piperidin-1-yl)methanone] | 1000 to 25000 nM |
| C[C@@H]1[C@@H](O)[C@H](O)[C@@H](O)CN1CC1CCC(C)(C)CC1 [Example 2, (2R,3R,4R,5S)-1-((4,4-dimethylcyclohexyl)methyl)-2-methylpiperidine-3,4,5-triol] | 100 to 1000 nM |
| C[C@@H]1[C@@H](O)[C@H](O)[C@@H](O)CN1CC1CCN(c2cccnc2)CC1 [Example 90, (2R,3R,4R,5S)-2-methyl-1-((1-(pyridin-3-yl)piperidin-4-yl)methyl)piperidine-3,4,5-triol] | 1000 to 25000 nM |
| C[C@@H]1[C@@H](O)[C@H](O)[C@@H](O)CN1CC1CCN(C(=O)c2ccccc2)CC1 [Example 106, phenyl(4-(((2R,3R,4R,5S)-3,4,5-trihydroxy-2-methylpiperidin-1-yl)methyl)piperidin-1-yl)methanone] | 100 to 1000 nM |
| C[C@@H]1[C@@H](O)[C@H](O)[C@@H](O)CN1CCC1CCC(F)(F)CC1 [Example 30, (2R,3R,4R,5S)-1-(2-(4,4-difluorocyclohexyl)ethyl)-2-methylpiperidine-3,4,5-triol] | 100 to 1000 nM |
| C[C@@H]1[C@@H](O)[C@H](O)[C@@H](O)CN1CC1CCC(F)(F)CC1 [Example 3, (2R,3R,4R,5S)-1-((4,4-difluorocyclohexyl)methyl)-2-methylpiperidine-3,4,5-triol] | 1000 to 25000 nM |
| CO[C@H]1CC[C@H](CN2C[C@H](O)[C@@H](O)[C@H](O)[C@H]2C)CC1 [Example 18, (2R,3R,4R,5S)-1-(((1r,4R)-4-methoxycyclohexyl)methyl)-2-methylpiperidine-3,4,5-triol] | 1000 to 25000 nM |
| C[C@@H]1[C@@H](O)[C@H](O)[C@@H](O)CN1C[C@H]1CCC[C@@H](C(F)(F)F)C1 [Example 16, (2R,3R,4R,5S)-2-methyl-1-(((cis)-3-(trifluoromethyl)cyclohexyl)methyl)piperidine-3,4,5-triol] | 100 to 1000 nM |
| C[C@@H]1[C@@H](O)[C@H](O)[C@@H](O)CN1CC1CCN(C(=O)Cc2ccccc2)CC1 [Example 108, 2-phenyl-1-(4-(((2R,3R,4R,5S)-3,4,5-trihydroxy-2-methylpiperidin-1-yl)methyl)piperidin-1-yl)ethanone] | 100 to 1000 nM |

Continued, values first:

| IC50 | Compound |
| --- | --- |
| < 100 nM | CC(C)(C)C1CCC(CN2C[C@H](O)[C@@H](O)[C@H](O)[C@H]2CF)CC1 (stereo partly drawn) [Example 146, (2S,3R,4R,5S)-1-((4-(tert-butyl)cyclohexyl)methyl)-2-(fluoromethyl)piperidine-3,4,5-triol] |
| < 100 nM | CC(C)[C@H]1CC[C@H](CN2C[C@H](O)[C@@H](O)[C@H](O)[C@H]2C)CC1 [Example 8, (2R,3R,4R,5S)-1-(((1r,4R)-4-isopropylcyclohexyl)methyl)-2-methylpiperidine-3,4,5-triol] |
| < 100 nM | C[C@@H]1[C@@H](O)[C@H](O)[C@@H](O)CN1C[C@H]1CC[C@H](C2CC2)CC1 [Example 21, (2R,3R,4R,5S)-1-(((1r,4R)-4-cyclopropylcyclohexyl)methyl)-2-methylpiperidine-3,4,5-triol] |
| 100 to 1000 nM | C[C@@H]1[C@@H](O)[C@H](O)[C@@H](O)CN1CC1CCN(C(=O)NC2CCCCC2)CC1 [Example 110, N-cyclohexyl-4-(((2R,3R,4R,5S)-3,4,5-trihydroxy-2-methylpiperidin-1-yl)methyl)piperidine-1-carboxamide] |
| < 100 nM | C=C[C@H]1CC[C@@H](CN2C[C@H](O)[C@@H](O)[C@H](O)[C@H]2C)CC1 [Example 6, (2R,3R,4R,5S)-2-methyl-1-(((1s,4S)-4-vinylcyclohexyl)methyl)piperidine-3,4,5-triol] |
| < 100 nM | C[C@@H]1[C@@H](O)[C@H](O)[C@@H](O)CN1C[C@@H]1CCN(c2cncnc2C(F)(F)F)C1 [Example 134, (2R,3R,4R,5S)-2-methyl-1-(((S)-1-(4-(trifluoromethyl)pyrimidin-5-yl)pyrrolidin-3-yl)methyl)piperidine-3,4,5-triol] |
| < 100 nM | C[C@@H]1[C@@H](O)[C@H](O)[C@@H](O)CN1CC1CCN(c2cccc(F)c2)CC1 [Example 84, (2R,3R,4R,5S)-1-((1-(3-fluorophenyl)piperidin-4-yl)methyl)-2-methylpiperidine-3,4,5-triol] |
| < 100 nM | C[C@@H]1[C@@H](O)[C@H](O)[C@@H](O)CN1CCCc1ccc(F)cc1 [Example 79, (2R,3R,4R,5S)-1-(3-(4-fluorophenyl)propyl)-2-methylpiperidine-3,4,5-triol] |
| < 100 nM | C[C@@H]1[C@@H](O)[C@H](O)[C@@H](O)CN1CCC12CC3CC(CC(C3)C1)C2 [Example 33, (2R,3R,4R,5S)-1-((2-adamantan-1-yl)ethyl)-2-methylpiperidine-3,4,5-triol] |
| < 100 nM | C[C@@H]1[C@@H](O)[C@H](O)[C@@H](O)CN1CCCc1ccccc1 [Example 77, (2R,3R,4R,5S)-2-methyl-1-(3-phenylpropyl)piperidine-3,4,5-triol] |
| < 100 nM | C[C@@H]1[C@@H](O)[C@H](O)[C@@H](O)CN1CC1CCN(c2ccccc2F)CC1 [Example 83, (2R,3R,4R,5S)-1-((1-(2-fluorophenyl)piperidin-4-yl)methyl)-2-methylpiperidine-3,4,5-triol] |
